From patent US10918713B2, “Epitopes from allergen proteins and methods and uses for immune response modulation” (LA JOLLA INSTITUTE FOR ALLERGY AND IMMUNOLOGY, priority 2012, dated 2021)
“And” between values parts separate entries of the source, which are not always exact repeats. Equal entries are not always repeated.

Assays:
Type in all cases: cell-based, human
[1] = tested on: PBMC from allergic donors; assay: IFN-γ ELISPOT with extract-stimulated short-term lines; settings: positive donor/peptide response
Procedure: (§1) Spots were counted by computer-assisted image analysis (Zeiss, KS-ELISPOT reader, Munich, Germany).
(§2) Each assay was performed in triplicate. The level of statistical significance was determined with a Student's t-test using the mean of triplicate values of the response against relevant pools or individual peptides versus the response against the DMSO control.

[2] = tested on: PBMC from allergic donors; assay: Dual ELISPOT, total IL-5 and IFN-γ response (SFC); settings: sum of IFNg and IL-5
Procedure: as §1, §2

[3] = tested on: PBMC from allergic donors; assay: IL-5 ELISPOT with extract-stimulated short-term lines; settings: positive donor/peptide response
Procedure: as §1, §2

Structure (SMILES) | Response (SFC/10^6) IFNg ([1]; each table line is one donor) | Response (SFC/10^6) Total ([2]; each table line is one donor) | Response (SFC/10^6) IL-5 ([3]; each table line is one donor) | Response (SFC/10^6) IFNg ([1]; one donor per table line) | Response (SFC/10^6) Total ([2]; one donor per table line) | Response (SFC/10^6) IL-5 ([3]; one donor per table line)
CC[C@H](C)[C@H](NC(=O)[C@H](CCCCN)NC(=O)[C@H](CCC(=O)O)NC(=O)[C@@H](NC(=O)[C@@H](N)CC(C)C)[C@@H](C)CC)C(=O)N[C@@H](CC(N)=O)C(=O)N[C@@H](C)C(=O)NCC(=O)N[C@@H](Cc1ccccc1)C(=O)N[C@@H](CCCCN)C(=O)N[C@@H](C)C(=O)N[C@@H](C)C(=O)N[C@H](C(=O)N[C@@H](C)C(=O)N[C@@H](C)C(=O)O)C(C)C [3324.1175] | 960 SFC/10^6 | 1860 SFC/10^6 and 1202 SFC/10^6 and 263 SFC/10^6 | 900 SFC/10^6 and 1202 SFC/10^6 and 263 SFC/10^6 | – | – | –
C[C@H](NC(=O)[C@@H](NC(=O)[C@H](C)NC(=O)[C@H](C)NC(=O)[C@H](C)NC(=O)[C@@H]1CCCN1C(=O)[C@@H](NC(=O)[C@H](C)NC(=O)[C@@H](NC(=O)[C@H](C)NC(=O)[C@H](Cc1ccc(O)cc1)NC(=O)[C@H](C)NC(=O)[C@H](C)NC(=O)[C@H](C)NC(=O)[C@@H]1CCCN1)[C@@H](C)O)[C@@H](C)O)[C@@H](C)O)C(=O)O [3324.1184] | 58 SFC/10^6 | 58 SFC/10^6 and 1637 SFC/10^6 | 1637 SFC/10^6 | – | – | –
CC[C@H](C)[C@H](NC(=O)[C@H](Cc1ccccc1)NC(=O)[C@H](C)NC(=O)[C@@H](N)CC(=O)O)C(=O)N[C@@H](C)C(=O)N[C@@H](C)C(=O)N[C@@H](CC(C)C)C(=O)N[C@H](C(=O)N[C@@H](CCC(=O)O)C(=O)N[C@@H](C)C(=O)N[C@@H](CC(C)C)C(=O)N[C@@H](CCCNC(=N)N)C(=O)N[C@H](C(=O)N[C@H](C(=O)N[C@@H](C)C(=O)O)[C@@H](C)CC)C(C)C)[C@@H](C)O [3324.1432] | 713 SFC/10^6 | 713 SFC/10^6 and 540 SFC/10^6 | 540 SFC/10^6 | – | – | –
CC[C@H](C)[C@H](NC(=O)[C@H](Cc1ccccc1)NC(=O)[C@H](CCCCN)NC(=O)[C@H](Cc1ccc(O)cc1)NC(=O)[C@@H](NC(=O)[C@H](CCC(=O)O)NC(=O)[C@H](Cc1ccc(O)cc1)NC(=O)[C@H](C)NC(=O)CN)[C@@H](C)O)C(=O)N1CCC[C@H]1C(=O)N[C@@H](CO)C(=O)N[C@@H](CC(C)C)C(=O)N[C@@H](CCC(=O)O)C(=O)N[C@@H](C)C(=O)N[C@@H](C)C(=O)O [3324.1433] | 208 SFC/10^6 and 153 SFC/10^6 | 247 SFC/10^6 and 208 SFC/10^6 and 153 SFC/10^6 | 247 SFC/10^6 | – | – | –
CC[C@H](C)[C@H](NC(=O)[C@H](C)NC(=O)[C@H](CCCCN)NC(=O)[C@H](CC(N)=O)NC(=O)[C@H](Cc1ccccc1)NC(=O)[C@H](C)NC(=O)CNC(=O)[C@H](CCC(=O)O)NC(=O)[C@H](Cc1ccccc1)NC(=O)[C@@H](NC(=O)[C@@H](NC(=O)[C@H](Cc1ccccc1)NC(=O)[C@H](CCCCN)NC(=O)[C@H](CC(=O)O)NC(=O)[C@@H](N)CC(N)=O)[C@@H](C)O)C(C)C)C(=O)O [3324.1442] | 93 SFC/10^6 | 400 SFC/10^6 and 93 SFC/10^6 | 400 SFC/10^6 | – | – | –
CC(C)[C@H](NC(=O)[C@H](Cc1ccccc1)NC(=O)[C@H](CO)NC(=O)[C@H](CC(=O)O)NC(=O)[C@H](Cc1ccccc1)NC(=O)[C@H](CCCCN)NC(=O)[C@H](C)NC(=O)[C@H](CCC(=O)O)NC(=O)[C@@H]1CCCN1C(=O)[C@@H](NC(=O)[C@H](C)N)[C@@H](C)O)C(=O)N[C@@H](C)C(=O)N[C@@H](C)C(=O)N[C@@H](Cc1ccccc1)C(=O)N[C@H](C(=O)O)[C@@H](C)O [3324.1570] | 80 SFC/10^6 and 117 SFC/10^6 | 238 SFC/10^6 and 80 SFC/10^6 and 117 SFC/10^6 | 238 SFC/10^6 | – | – | –
CC[C@H](C)[C@H](NC(=O)[C@@H](N)CC(=O)O)C(=O)N[C@@H](CC(N)=O)C(=O)N[C@H](C(=O)NCC(=O)N[C@@H](Cc1ccccc1)C(=O)N[C@@H](CCCCN)C(=O)N[C@@H](C)C(=O)N[C@@H](C)C(=O)N[C@H](C(=O)N[C@@H](C)C(=O)N[C@@H](C)C(=O)N[C@@H](C)C(=O)N[C@@H](C)C(=O)NCC(=O)O)C(C)C)C(C)C [3324.1571] | 47 SFC/10^6 and 1183 SFC/10^6 | 397 SFC/10^6 and 47 SFC/10^6 and 1057 SFC/10^6 and 1183 SFC/10^6 | 397 SFC/10^6 and 1057 SFC/10^6 | – | – | –
CC(C)[C@H](NC(=O)[C@H](C)NC(=O)[C@H](C)NC(=O)[C@H](CCCCN)NC(=O)[C@@H](N)Cc1ccccc1)C(=O)N[C@@H](C)C(=O)N[C@@H](C)C(=O)N[C@@H](C)C(=O)N[C@@H](C)C(=O)NCC(=O)N[C@@H](C)C(=O)N1CCC[C@H]1C(=O)N1CCC[C@H]1C(=O)N[C@@H](C)C(=O)N[C@@H](CC(=O)O)C(=O)O [3324.1575] | 230 SFC/10^6 | 138 SFC/10^6 and 327 SFC/10^6 and 230 SFC/10^6 | 138 SFC/10^6 and 327 SFC/10^6 | – | – | –
CC[C@H](C)[C@H](NC(=O)[C@H](CC(=O)O)NC(=O)[C@H](CCC(=O)O)NC(=O)[C@H](CCSC)NC(=O)[C@H](CC(C)C)NC(=O)[C@H](CCCCN)NC(=O)[C@@H](N)CCC(N)=O)C(=O)N[C@@H](CC(N)=O)C(=O)N[C@H](C(=O)NCC(=O)N[C@@H](Cc1ccccc1)C(=O)N[C@@H](CCCCN)C(=O)N[C@@H](C)C(=O)N[C@@H](C)C(=O)N[C@H](C(=O)O)C(C)C)C(C)C [3324.1580] | 317 SFC/10^6 and 283 SFC/10^6 | 317 SFC/10^6 and 390 SFC/10^6 | 107 SFC/10^6 | – | – | –
CC(C)C[C@H](NC(=O)[C@H](Cc1ccc(O)cc1)NC(=O)[C@H](C)NC(=O)[C@H](CCC(=O)O)NC(=O)[C@@H](NC(=O)[C@H](C)NC(=O)[C@H](CCCCN)NC(=O)[C@H](Cc1ccccc1)NC(=O)[C@@H](NC(=O)[C@H](CCC(=O)O)NC(=O)[C@H](CO)NC(=O)[C@H](C)N)C(C)C)C(C)C)C(=O)N[C@H](C(=O)N[C@@H](C)C(=O)N[C@@H](Cc1c[nH]cn1)C(=O)O)C(C)C [3324.1584] | – | – | – | 143 SFC/10^6 | 207 SFC/10^6 and 1033 SFC/10^6 and 97 SFC/10^6 | 207 SFC/10^6 and 890 SFC/10^6 and 97 SFC/10^6
CC(C)C[C@H](NC(=O)[C@H](CC(N)=O)NC(=O)[C@H](CC(=O)O)NC(=O)[C@H](CO)NC(=O)[C@H](CC(=O)O)NC(=O)[C@H](CC(C)C)NC(=O)[C@@H](NC(=O)[C@H](Cc1ccccc1)NC(=O)[C@H](C)NC(=O)[C@H](CCCCN)NC(=O)[C@H](Cc1ccccc1)NC(=O)[C@H](CC(C)C)NC(=O)[C@H](CCCNC(=N)N)NC(=O)[C@H](C)NC(=O)[C@@H]1CCCN1)C(C)C)C(=O)O [3324.1585] | – | – | – | 1877 SFC/10^6 and 393 SFC/10^6 and 180 SFC/10^6 | 170 SFC/10^6 and 2767 SFC/10^6 and 1790 SFC/10^6 and 583 SFC/10^6 and 700 SFC/10^6 and 70 SFC/10^6 | 170 SFC/10^6 and 890 SFC/10^6 and 1790 SFC/10^6 and 190 SFC/10^6 and 520 SFC/10^6 and 70 SFC/10^6
CC[C@H](C)[C@H](NC(=O)[C@@H](NC(=O)[C@H](CO)NC(=O)[C@H](C)N)C(C)C)C(=O)N1CCC[C@H]1C(=O)N1CCC[C@H]1C(=O)N[C@@H](C)C(=O)N[C@@H](CCCNC(=N)N)C(=O)N[C@@H](CC(C)C)C(=O)N[C@@H](Cc1ccccc1)C(=O)N[C@@H](CCCCN)C(=O)N[C@@H](C)C(=O)N[C@@H](Cc1ccccc1)C(=O)N[C@H](C(=O)N[C@@H](CC(C)C)C(=O)O)C(C)C [3324.1587] | – | – | – | 273 SFC/10^6 and 127 SFC/10^6 | 273 SFC/10^6 and 330 SFC/10^6 and 97 SFC/10^6 and 100 SFC/10^6 | 203 SFC/10^6 and 97 SFC/10^6 and 100 SFC/10^6
